{
  "source": "patent US8735443B2",
  "about": "“Method of treating diabetes-related vascular complications” (Kuwait University, priority 2008, dated 2014)",
  "key": {"[1]": {"tested_on": "nox-1", "assay": "Aortic mRNA expression by real-time PCR, nox-1", "type": "in vivo, rat", "details": "aorta of LA-treated GK rats", "method": "Further, with regard to quantitative real-time polymerase chain reactions (PCR) in the study, total RNA from the arterial samples was isolated using TRIZOL® reagent, and RNA integrity was verified by agarose gel electrophoresis and quantified by spectrophotometry. Reverse transcription reaction of total RNA (5 μg) was performed using a superscript 111 first-strand synthesis system. Quantitative real-time PCR was performed using fast SYBR Green QPCR. […]\nThe housekeeping gene beta-actin was used for internal normalization. Fidelity of the PCR reaction was determined by melting temperature analysis. PCR efficiency for each primer pair was determined by quantitating amplification with increasing concentration of template cDNA. […] RNA expression of target genes was calculated based on the real-time PCR efficiency E and the threshold crossing point (CP) and is expressed relative to the reference gene beta-actin."}, "[2]": {"tested_on": "protein-bound carbonyls", "assay": "Aortic content of protein-bound carbonyls", "details": "aorta of LA-treated GK rats"}, "[3]": {"tested_on": "diabetic fibroblasts (DFs)", "assay": "Cell viability after hydrogen peroxide (Cell Counting Kit-8), diabetic fibroblasts", "type": "cell-based, rat", "details": "diabetic fibroblasts, lipoic acid 500 μM, Nrf2-dependent", "description": "(§1) To determine the effect of α-lipoic acid on isolated cells from normal and diabetic rats, primary rat fibroblasts were derived from dorsal skin biopsies performed on four diabetic Coto Kakizaki rats (DFs) and four age-matched (12-14 months) and sex-matched (female) Wistar control rats (CFs). After sterilization in povidine solution, the rat skin was washed in sterile water and rinsed in 70% ethanol in phosphate-buffered saline (PBS). The epidermis and dermis were separated following overnight incubation in 0.25% Trypsin/EDTA at 4° C. Samples were washed, diced and digested for thirty minutes at 37° C. in collagenase type I (250 U/ml) dissolved in Dulbecco's modified Eagle medium (DMEM; Invitrogen) containing penicillin (100 U/ml), 2 mM L-glutamine and 26 mM HEPES. After collagenase treatment, the cells were dislodged, centrifuged and resuspended in medium supplemented with 10% fetal bovine serum. The cells were grown under standard conditions, and the medium was changed every three to four days. Control and diabetic fibroblasts were grown under normo-glycemic conditions (5.5 mM glucose) and used in experiments at passage 3 to 5.\nFibroblasts were seeded at 1×10^4 cells/well on a 96-well plate. After a 24 hour incubation period, the cells were exposed to various concentrations of HP in serum-free medium at 37° C. for 2 hours [lactate dehydrogenase (LDH), a marker for necrotic cell death], or for 16 hours (cell viability). Quantification of cell viability was assessed using a Cell Counting Kit-8 (Dojindo, Kumamoto, Japan). The values obtained were normalized to the vehicle-treated cells. To measure the rate of necrotic cell death, an LDH release assay was performed using a CytoTox-ONE Homogeneous Membrane Integrity Assay kit (Promega). Expression of Nrf2 was inhibited by small-interfering RNA (siRNA) oligonucleotides. The sequences were designed and synthesized by Qiagen. The best silencing efficiency was obtained by incubating 2.0×10^5 cells/well in a 6-well plate with complexes formed by 5 nM siRNA (1 μl) and 9 μL of HiPerfect transfection reagent (Qiagen) dissolved in 90 μl medium, according to the manufacturer's instructions. The transfection was achieved by adding 0.9 ml of medium to the seeded cells followed by 100 μl of siRNA/HiPerfect complex. Knock-out efficiency was verified by real-time PCR and Western blot. Twenty-four hours later, 1 ml of fresh medium was added; 48 hr after transfection the cells were exposed to either vehicle or lipoic acid at a concentration of 500 μM."}, "[4]": {"tested_on": "cultured arteries", "assay": "Cultured arteries of non-diabetic control animals exposed to TNF-α", "parameters": "species or system rat", "details": "pretreatment with LA"}, "[5]": {"tested_on": "diabetic fibroblasts (DFs)", "assay": "LDH release assay (necrotic cell death) in fibroblasts", "type": "cell-based, rat", "details": "lipoic acid 500 μM, Nrf2-dependent", "description": "as §1\nFibroblasts were seeded at 1×10^4 cells/well on a 96-well plate. […] Quantification of cell viability was assessed using a Cell Counting Kit-8 (Dojindo, Kumamoto, Japan). […]"}},
  "data": [
    {"smiles": "O=C(O)CCCCC1CCSS1", "note": "(stereo not drawn) [LA, alpha-lipoic acid]", "values": [
      {"measurement": "rate of gene expression of nox-1 subunit", "setting": "[1]", "value": "tended to reduce"},
      {"measurement": "oxidative stress-mediated damage to protein (protein-bound carbonyls)", "setting": "[2]", "value": "partially reversed"},
      {"measurement": "protection of cell viability from hydrogen peroxide", "setting": "[3]", "value": "protected"},
      {"measurement": "TNF-α-induced abnormalities (O2− generation, caspase 3/7, DNA fragmentation, Ach-induced vasorelaxation)", "setting": "[4]", "value": "partially reversed"},
      {"measurement": "LDH release into cell culture media (necrotic cell death) in response to HP", "setting": "[5]", "value": "reduces cell death"}
    ]}
  ]
}
